Legend:
[1] = test system: naïve BALB/c mice; experiment: Intranasal cys-LT in naïve BALB/c mice, lung histology; format: in vivo, mouse; conditions: 2 nmol, three successive days
Procedure: Thus, it was sought to determine whether either cys-LT amplified pulmonary […], BALB/c mice received inhalation challenges on three consecutive days with low-dose OVA (0.1%) for 30 minutes. Twelve hours before each challenge, the mice received intranasal LTD4, LTE4, or a buffer control. A cohort of mice treated with 1% OVA were maintained as a positive control. The mice were then euthanized, their BAL fluid collected, and their lungs examined histologically for evidence of inflammation and goblet cell metaplasia, a dominant pathologic signature of Th2-polarized mucosal inflammation. […] The extent of the cellularity and goblet cell responses of the LTE4-treated animals approached the levels of these parameters in the mice treated with 1% OVA.
15 bronchovascular bundles of each mouse were evaluated.

[2] = test system: Cysltr1/Cysltr2^−/− mice; experiment: LTE4 amplification of pulmonary inflammation in mice lacking both CysLT1R and CysLT2R; format: in vivo, mouse
Procedure: FIG. 4. […] 4A. […] Clopidogrel (500 μg/ml) was added to the drinking water of the indicated groups of mice for 72 h before the first intranasal dose of LTs, and was maintained throughout the treatment. Results are mean±SEM from at least 9 mice in each group. The experiments were repeated three times with similar results. 4B. PAS stains (left column) from representative mice in the indicated groups showing the effect of clopidigrel on goblet cell metaplasia. Higher magnification images of H & E stains (right) from the same animals showing cellular characteristics of the bronchovascular infiltrates. 4C. Effect of clopidogrel administration on the steady-state expression of IL-13 and MUC5AC mRNA as determined by real-time PCR of whole lung RNA extracted 24 h after the last OVA challenge of the indicated groups. Data are mean±SEM from 4-5 mice/group from a single experiment. Results in a second experiment were similar 4D-4F. […] 4D. Total cell numbers (top), percentages of eosinophils (middle), and total numbers of eosinophils in BAL fluid recovered 24 h after the last challenge with OVA. 4E. Goblet cell metaplasia (top) and representative PAS stains (bottom) from wild-type and p2ry12^−/− mice subjected to the same protocol. 4E. Inflammation scores from the same mice. Data in 4D-4F are from 4 mice per group. […] Quantitative assessment of bronchovascular inflammation as determined by H & E stains. […]

[3] = Direct binding of [H^3]LTE4 to LAD2 cell membranes; set-up: species or system human
Procedure: (§1) FIG. 10. Competitive ligand binding assays. 10A. […] Specific binding (typically 50-75% of the total) was calculated by subtracting the amount of radiolabel that was insensitive to the selective P2Y12 receptor antagonist 2-MesAMP. Nonspecific binding was essentially identical in the membranes with and without P2Y12 receptor knockdown. The dose response for the LAD2 membranes are from a single experiment repeated four times with similar results. The binding on the LAD2 cells with P2Y12 knocked down was repeated twice. 10B. Specific binding of radiolabeled ADP (2000 nM) to membranes of LAD2 cells. […] Results are mean±SD from three separate experiments. 10C. Conversion of radiolabeled LTD4 to LTE4 as confirmed by HPLC (left). […] Results in a second experiment were similar 10D. Competitive binding of radiolabeled 2-MesADP to COS-7 cells transfected with the human P2Y12 construct.
Competitive radioligand binding assays were performed using [H^3]ADP (the known natural ligand of P2Y12 receptors) and unlabeled LTs as competitors. […]
[^3H] […] Protein concentration was determined using Biorad Protein Assay Kit. […] The residual membrane-associated [^3H] on the filter was determined in 2 ml scintillation fluid by beta counter (Perkin Elmer). For [^3H]ADP, specific binding was determined by subtracting the amount of [^3H] bound in the presence of 100 μM 2-MesADP from total binding.

[4] = test system: P2Y12 receptors; experiment: Competitive radioligand binding of [H^3]ADP to LAD2 cell membranes; set-up: species or system human
Procedure: as §1
Competitive radioligand binding assays were performed using [H^3]ADP (the known natural ligand of P2Y12 receptors) and unlabeled LTs as competitors. […] The membranes from the transfectants expressing the forward construct bound [P^33]2-MesADP, a selective P2Y12 receptor agonist.
[^3H] […] The converted product was extracted into 400 μl of methanol, evaporated in presence of nitrogen and diluted to the required concentration with the binding buffer for the binding assay. The conversion was confirmed by running an aliquot on high-performance reverse phase liquid chromatography. […] Briefly, cells were washed in PBS, resuspended in PBS supplemented with protease inhibitor cocktail and lysed by sonication for 5 min. The lysed cells were centrifuged at 100,000 Xg for 45 min and the microsomal pellet was resuspended in 1 ml PBS. Protein concentration was determined using Biorad Protein Assay Kit. 50 μg of membrane protein was incubated for 1 h at room temperature in 250 μl of 10 mM Hepes/KOH, pH 7.4, with various concentrations of radiolabeled ligand and cold competitor. Bound [^3H] was separated from free [^3H] by filtration through GF/C filters (Whatman) and washed twice with 10 mM Hepes/KOH, pH 7.4, containing 0.01% BSA. The residual membrane-associated [^3H] on the filter was determined in 2 ml scintillation fluid by beta counter (Perkin Elmer). For [^3H]ADP, specific binding was determined by subtracting the amount of [^3H] bound in the presence of 100 μM 2-MesADP from total binding.

| SMILES | lung histology (cellular influx, goblet cell metaplasia) [1] | potentiation of OVA-induced BAL fluid eosinophilia, goblet cell metaplasia and inflammation [2] | binding of [H^3]LTE4 to LAD2 cell membranes [3] | specific ADP binding blocked ([4]; unlabeled LTE4 0.1 nM, mean±SEM, four experiments) [%] | specific ADP binding blocked ([4]; unlabeled LTE4 1 nM, mean±SEM, four experiments) [%] | specific ADP binding blocked (plateau) ([4]; unlabeled LTE4 1 μM, mean±SEM, four experiments) [%] | competition with labeled ADP, LTE4 compared with LTD4 ([4]; unlabeled competitors 10 μM) |
| --- | --- | --- | --- | --- | --- | --- | --- |
| CCCCC/C=C\C\C=C/C=C/C=C/[C@@H](SC[C@H](N)C(=O)NCC(=O)O)[C@@H](O)CCCC(=O)O [LTD4] | no evidence of cellular influx or goblet cell metaplasia | – | – | – | – | – | – |
| CCCCC/C=C\C\C=C/C=C/C=C/[C@@H](SC[C@H](N)C(=O)O)[C@@H](O)CCCC(=O)O [LTE4] | no evidence of cellular influx or goblet cell metaplasia | completely intact | weakly bound | 39±9 | 50±9 | 60±7 | more efficacious than LTD4 |

— patent US8299097B2, “Methods for treating inflammatory disorders” (The Brigham and Women's Hospital, Inc., priority 2008, dated 2012)
